Test results reported in patent US20100003217A1, “Compounds and Pharmaceutical Compositions for the Treatment of Viral Infections” (priority 2008, published 2010).

Assays:
[1] = tested on: rat primary hepatocytes; experiment: In vitro intracellular half-life of 2′-C-methyl guanosine-5′-triphosphate (Compound 7) in rat primary hepatocytes; type: in vitro ADME; settings: for Decay of Compound 7: level in cellular extracts: rat hepatocytes Rs458, after 24 h incubation with 10 μM [^14C]-Compound 1
Protocol: (§1) Primary hepatocytes were incubated with 10 μM [^14C]-Compound 1 ([…]) or [^14C]-2′-C-methyl guanosine (127 DPM/μmol) for 24 hours at which time the incubation medium was removed and the cell monolayer carefully washed two times with warm (37° C.) PBS and placed back in culture with drug-free medium. At selected times up to 24 hours, the medium was removed and the cell monolayers carefully washed two times with ice-cold PBS. Following the last wash, all PBS was carefully removed and the cell monolayers processed and extracted as previously described. […]

[2] = as above; type: in vitro ADME; settings: primary hepatocytes (cellular extracts)
Protocol: as §1

[3] = tested on: HCV genotype 1b replicon (GS4.1 cells); experiment: In vitro combination of Compound 1 and ribavirin on HCV replicon (NS4A ELISA; MacSynergy II, CombiTool, CalcuSyn); type: cell-based; settings: Hepatitis C virus, 72 h, single-drug titration experiments, three days
Protocol: This setup was run in duplicate in each 96-well plate.
Cells were incubated with inhibitors for three days at 37° C./5% CO2.
After three days of drug treatment, media was removed from the plates via gentle tapping and the cells were fixed to the plates with 100 μL/well of 1:1 acetone:methanol.
After one minute of incubation at room temperature, plates were washed three times with 100 μL/well of ELISA wash solution and then blocked with 150 μL/well of 10% FBS-TNE.
After a one hour incubation period at 37° C., each plate was washed three times with 100 μL/well of ELISA wash solution. Color development was then initiated with 100 μL/well of OPD solution.
After a 30 minute incubation period in the dark at room temperature, reactions were stopped by adding 100 μL of 2NH2SO4 to each well.
The absorbance was measured at 490 nm on a Victor^3 V 1420 multilabel counter (Perkin Elmer).

[4] = tested on: CYP3A4; experiment: Effect of CYP3A4 inhibitors (ketoconazole, ritonavir) on metabolic stability in rat liver microsomes; type: in vitro ADME; settings: rat microsomes 1 mg/mL, 60 min, 10 μM, NADPH
Protocol: (§2) Incubations were conducted in a final volume of 0.1 mL per incubation time point. […] Final solvent (DMSO or methanol) concentration was maintained at 0.2%. Reactions were initiated by the addition of an NADPH regenerating system (1.3 mM NADP^+, 3.3 mM glucose-6-phosphate, 0.4 U/ml glucose-6-phosphate dehydrogenase, and 3.3 mM MgCl2, final concentrations). Incubations with no inhibitor served as control. Reactions were terminated at 30 min (monkey) or 60 min (rat and human) by the addition of 0.2 mL of stop solution (acetonitrile). The samples were vortex-mixed for 30 sec and then centrifuged at 10,000×g for 10 min. The supernatant was dried using a Labconco CentriVap concentrator and the dry residue reconstituted in water, transferred to an HPLC glass vial and analyzed by HPLC-UV method 1 (described above).
(§3) Because Compound 1 is rapidly metabolized in monkey liver microsomes, incubation conditions were adjusted by reducing protein content to 0.5 mg/mL and incubation time to 30 min. Incubation conditions for rat and human were unchanged; protein was 1 mg/mL and incubation time was 60 min.

[5] = molecular target: CYP2C9 (Homo sapiens, UniProt P11712); experiment: Incubation with human recombinant CYP450 supersomes, 2C9; type: in vitro ADME; settings: CYP450 2C9 supersomes, 60 min, 10 μM, average of two experiments
Protocol: Supersomes—Incubations were conducted in a final volume of 0.1 mL reaction buffer (50-100 mM potassium phosphate, pH 7.4 or 100 mM Tris-HCL, pH 7.4) according to protocol provided with each CYP450 supersome. Each reaction contained […] of CYP450 supersome, 1.3 mM NADP^+, 3.3 mM glucose-6-phosphate, 0.4 U/mL glucose-6-phosphate dehydrogenase, 3.3 mM MgCl2 and 10 μM Compound 1. Following incubation for 60 min at 37° C., 100 μL of stop solution (acetonitrile:methanol; 1:1) was added and samples centrifuged for 10 min at 10,000×g. The supernatant was then dried and reconstituted in 10 mM potassium phosphate, pH 5, further transferred to an HPLC glass vial and analyzed by HPLC-UV (described above).

[6] = Cytotoxicity assay (MTS), GS4.1 cells; type: cell-based, human; settings: human, 3 days (NS4A-ELISA Assay)
Protocol: The cytotoxicity assay measures the viability of cells after treatment with a test compound for 3 days in either GS4.1 cells or Zluc cells. […] The cytotoxicity assay is summarized as follows. Ninety-six-well tissue culture plates were seeded with GS4.1 or Zluc cells. Antiviral compound solutions were made up freshly in medium as 2×-concentrated stocks. Eight additional 3-fold drug dilutions were prepared from these stocks in medium for a total of 9 dilutions. At least four hours after the cells were seeded, drug treatment was initiated by adding one volume of each 2×-concentrated drug dilution to one volume of cells/medium in the tissue culture plates. Cells were then incubated for 3 days at 37° C./5% CO2. After 3 days of treatment, the CellTiter 96® Aqueous One Solution cell proliferation assay (Promega) was performed by adding the MTS solution to each well. The plates were then incubated at 37° C./5% CO2 for 3.5 hours. Plates were then read in a Victor^3V 1420 multilabel counter (Perkin Elmer) and CC50 concentrations were determined using Microsoft Excel and XLfit 4.1 software.

[7] = molecular target: CYP3A4 (Homo sapiens, UniProt P08684); experiment: Effect of CYP3A4 inhibitors (ketoconazole, ritonavir) on metabolic stability in human liver microsomes; type: in vitro ADME; settings: human microsomes 1 mg/mL, 60 min, 10 μM, NADPH
Protocol: as §2, §3

[8] = rat hepatocytes, [^14C]-Compound 1 removed

Chain of CYP3A4 (Homo sapiens, UniProt P08684) (P08684 whole entry): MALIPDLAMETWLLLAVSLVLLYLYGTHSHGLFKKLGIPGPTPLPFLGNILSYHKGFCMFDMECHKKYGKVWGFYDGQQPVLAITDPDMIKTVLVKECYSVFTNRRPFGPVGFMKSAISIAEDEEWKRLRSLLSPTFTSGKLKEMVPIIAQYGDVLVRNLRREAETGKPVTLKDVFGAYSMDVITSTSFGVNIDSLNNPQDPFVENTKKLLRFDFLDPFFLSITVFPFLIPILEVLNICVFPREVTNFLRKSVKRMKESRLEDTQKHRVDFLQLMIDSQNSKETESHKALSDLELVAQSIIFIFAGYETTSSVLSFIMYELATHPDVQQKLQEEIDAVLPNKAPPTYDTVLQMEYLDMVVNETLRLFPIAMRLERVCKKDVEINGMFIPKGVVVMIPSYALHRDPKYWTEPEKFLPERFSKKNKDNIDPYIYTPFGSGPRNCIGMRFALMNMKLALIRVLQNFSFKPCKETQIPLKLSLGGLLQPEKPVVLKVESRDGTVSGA
Chain of CYP2C9 (P11712 whole entry): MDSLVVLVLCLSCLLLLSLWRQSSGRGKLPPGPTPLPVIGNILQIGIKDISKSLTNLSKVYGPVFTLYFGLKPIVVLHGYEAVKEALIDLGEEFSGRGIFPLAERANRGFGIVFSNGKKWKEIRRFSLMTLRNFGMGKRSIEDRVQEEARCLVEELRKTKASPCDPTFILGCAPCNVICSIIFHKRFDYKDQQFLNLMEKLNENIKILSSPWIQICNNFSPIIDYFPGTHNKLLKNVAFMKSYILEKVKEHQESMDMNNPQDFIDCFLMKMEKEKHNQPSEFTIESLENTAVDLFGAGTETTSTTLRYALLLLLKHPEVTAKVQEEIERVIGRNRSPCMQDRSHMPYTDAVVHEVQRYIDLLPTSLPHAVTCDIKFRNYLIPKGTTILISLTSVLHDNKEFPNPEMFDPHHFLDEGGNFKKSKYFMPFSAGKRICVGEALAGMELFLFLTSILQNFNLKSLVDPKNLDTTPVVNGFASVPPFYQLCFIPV

## C[C@@]1(O)[C@H](O)[C@@H](COP(=O)(O)OP(=O)(O)OP(=O)(O)O)O[C@H]1n1cnc2c(=O)[nH]c(N)nc21 [Compound 7, [(2R)-2-methyl-β-D-ribofuranosyl]guanine 5′-triphosphate]
[1]; decay time 0 h
  Decay of Compound 7: level in cellular extracts: 932 pmol/million cells
[1]; decay time 1 h
  Decay of Compound 7: level in cellular extracts: 954 pmol/million cells
[1]; decay time 4 h
  Decay of Compound 7: level in cellular extracts: 811 pmol/million cells
[1]; decay time 8 h
  Decay of Compound 7: level in cellular extracts: 545 pmol/million cells
[1]; decay time 24 h
  Decay of Compound 7: level in cellular extracts: 83.0 pmol/million cells
[1]; [8]
  Compound 7 levels after 24 hours without drug: 83 pmol/million cells
  reduction of Compound 7 levels after 24 hours without drug: 91%
[1]; rat hepatocytes, after 24 h with 10 μM [^14C]-Compound 1
  Compound 7 levels at time zero: 932 pmol/million cells
[2]; rat hepatocytes Rs458, after 24 h incubation with 10 μM [^14C]-Compound 1, linear regression
  half-life at 10 μM: 6.61 h
[2]; rat hepatocytes, following [^14C]-Compound 1
  half-life at 10 μM: 6.61 h

## CC(C)(CO)C(=O)SCCOP(=O)(NCc1ccccc1)OC[C@H]1O[C@@H](n2cnc3c(=O)[nH]c(N)nc32)[C@](C)(O)[C@@H]1O (mixture of isomers) [Compound 1, 3-hydroxy-2,2-dimethyl-thiopropionic acid S-(2-{[(2R,3R,4R,5R)-5-(2-amino-6-oxo-1,6-dihydro-purin-9-yl)-3,4-dihydroxy-4-methyl-tetrahydro-furan-2-ylmethoxy]-benzylamino-phosphoryloxy}-ethyl) ester]
[3]
  EC50: 400 ± 90 nM
[4]; Ketoconazole 0.1 μM
  % Residual Compound 1: 83%
[4]; Ketoconazole 1 μM
  % Residual Compound 1: 120%
[4]; Ritonavir 0.1 μM
  % Residual Compound 1: 101%
[4]; Ritonavir 1 μM
  % Residual Compound 1: 123%
[4]; inhibitor 0 μM
  % Residual Compound 1: 86%
[5]
  % Residual Compound 1: 109%
[6]
  CC50 at 3 days: > 100000 nM
[7]; Ketoconazole 0.1 μM
  % Residual Compound 1: 103%
[7]; Ketoconazole 1 μM
  % Residual Compound 1: 117%
[7]; Ritonavir 0.1 μM
  % Residual Compound 1: 92%
[7]; Ritonavir 1 μM
  % Residual Compound 1: 117%
[7]; inhibitor 0 μM
  % Residual Compound 1: 65%
